Like-named read-outs stand apart in the source and are kept apart here.
Assays:
[1] = Phase 1 crossover study: rosuvastatin plasma pharmacokinetics; format: in vivo, human; conditions: for AUC(0-inf) / half-life / AUC(0-t) / Cmax: human, plasma, oral, 10 mg
Description: The primary objective was to evaluate the pharmacokinetics of oral rosuvastatin when administered alone and in combination with oral AZD5718. […] Each participant received 5 single-dose oral study treatments (A-E), with a minimum washout period of 7 days between each treatment period. Participants were randomly assigned to treatments in the order A, B, C, D, E or B, A, C, D, E. Treatments were: […] […] Participants fasted for at least 10 hours before treatment and for at least 4 hours after treatment. Participants receiving treatment E consumed a high-fat breakfast 30 minutes before treatment. Water was permitted as desired except within 1 hour of administration. […] Doses were taken with 240 mL of water. […] At a minimum, each analytical run included a calibration curve, a matrix blank, a control zero sample (matrix blank containing internal standard), a reagent blank, and duplicate quality control samples at 3 concentrations within the calibration range. […] Both assessments were well within the acceptance criteria. […] The pharmacokinetic analysis set for rosuvastatin included all participants who received both rosuvastatin treatments. […] Statistical analyses were performed by […] using SAS version 9.4. Rosuvastatin pharmacokinetics were analyzed using a mixed-effects model, with log-transformed AUC, AUC0-last, and Cmax as the response variables; treatment sequence, period, and treatment as fixed effects; and participant nested within treatment sequence as a random effect. […] LS mean differences and 90%CIs for the effect of formulation or food for log-transformed variables were back transformed to geometric mean ratios and presented as percentages with 90% CIs.

healthy volunteers = assay: Phase 1 crossover study: safety and tolerability (adverse events); format: in vivo, human; conditions: rosuvastatin 10 mg, fasted, n = 12
Description: Each participant received 5 single‐dose oral study treatments (A‐E), with a minimum washout period of 7 days between each treatment period.
The safety set included all participants who received treatment in the study and for whom any postdose safety data were available. Safety was assessed throughout the study by monitoring adverse events, vital signs (systolic and diastolic blood pressure, pulse rate, and body temperature), and electrocardiographic parameters and by conducting physical examinations and laboratory assessments (hematology, blood chemistry, and urinalysis).

[2] = set-up: method as in PMID 15116058; conditions: coadministered with gemfibrozil; cited from earlier work
[3] = system: patients with acute coronary syndrome; set-up: method as in PMID 20190281; conditions: cited from earlier work
[4] = system: patients with coronary artery disease; set-up: method as in earlier work; conditions: cited from earlier work
[5] = system: patients receiving statins; set-up: method as in PMID 28845751; conditions: cited from earlier work
[6] = system: patients with coronary artery disease; set-up: method as in PMID 28834471; conditions: cited from earlier work

In the case of `CC(C)c1nc(N(C)S(C)(=O)=O)nc(-c2ccc(F)cc2)c1/C=C/[C@@H](O)C[C@@H](O)CC(=O)O` [Rosuvastatin, rosuvastatin], the “Rosuvastatin AUC0-inf (relative bioavailability), ratio of geometric LS means” value ([1]; coadministered with AZD5718 200 mg vs alone, 90% CI 86%-116%) is reported as 100%, the “Rosuvastatin AUC0-last, ratio of geometric LS means” value ([1]; coadministered with AZD5718 200 mg vs alone, 90% CI 87%-106%) is reported as 96% and the “Rosuvastatin Cmax, ratio of geometric LS means” value ([1]; coadministered with AZD5718 200 mg vs alone, 90% CI 107%-146%) is reported as 125%. For the same molecule, the “Increase in rosuvastatin Cmax” value ([1]; coadministration with AZD5718 tablets vs alone) was “about 25%”, the AUC(0-inf) ([1]; rosuvastatin 10 mg alone, fasted, n = 9, read-out: Rosuvastatin AUC0-inf, arithmetic mean (SD)) was 45.3 ng·h/mL and the AUC(0-inf) ([1]; rosuvastatin 10 mg alone, fasted, n = 9, read-out: Rosuvastatin AUC0-inf, geometric mean (%CV)) was 41 ng·h/mL. For the same molecule, the half-life ([1]; rosuvastatin 10 mg alone, fasted, n = 9, read-out: Rosuvastatin t1/2 lambda z, arithmetic mean (SD) (converted)) was 16 h, the half-life ([1]; rosuvastatin 10 mg alone, fasted, n = 9, read-out: Rosuvastatin t1/2 lambda z, geometric mean (%CV) (converted)) was 14.7 h and the AUC(0-t) ([1]; rosuvastatin 10 mg alone, fasted, n = 12, read-out: Rosuvastatin AUC0-last, arithmetic mean (SD)) was 54.2 ng·h/mL. The AUC(0-t) ([1]; rosuvastatin 10 mg alone, fasted, n = 12, read-out: Rosuvastatin AUC0-last, geometric mean (%CV)) was 45.3 ng·h/mL, the Cmax ([1]; rosuvastatin 10 mg alone, fasted, n = 12, read-out: Rosuvastatin Cmax, arithmetic mean (SD)) was 5.56 ng/mL and the Cmax ([1]; rosuvastatin 10 mg alone, fasted, n = 12, read-out: Rosuvastatin Cmax, geometric mean (%CV)) was 4.59 ng/mL. The AUC(0-inf) ([1]; rosuvastatin 10 mg plus AZD5718 200-mg tablet, fasted, n = 10, read-out: Rosuvastatin AUC0-inf, arithmetic mean (SD)) was 56.9 ng·h/mL, the AUC(0-inf) ([1]; rosuvastatin 10 mg plus AZD5718 200-mg tablet, fasted, n = 10, read-out: Rosuvastatin AUC0-inf, geometric mean (%CV)) was 50.5 ng·h/mL and the half-life ([1]; rosuvastatin 10 mg plus AZD5718 200-mg tablet, fasted, n = 10, read-out: Rosuvastatin t1/2 lambda z, arithmetic mean (SD) (converted)) was 16.4 h. It also gave a half-life ([1]; rosuvastatin 10 mg plus AZD5718 200-mg tablet, fasted, n = 10, read-out: Rosuvastatin t1/2 lambda z, geometric mean (%CV) (converted)) of 16.5 h, an AUC(0-t) ([1]; rosuvastatin 10 mg plus AZD5718 200-mg tablet, fasted, read-out: Rosuvastatin AUC0-last, arithmetic mean (SD)) of 49.4 ng·h/mL and an AUC(0-t) ([1]; rosuvastatin 10 mg plus AZD5718 200-mg tablet, fasted, read-out: Rosuvastatin AUC0-last, geometric mean (%CV)) of 43.5 ng·h/mL. The Cmax ([1]; rosuvastatin 10 mg plus AZD5718 200-mg tablet, fasted, read-out: Rosuvastatin Cmax, arithmetic mean (SD)) was 6.74 ng/mL, the Cmax ([1]; rosuvastatin 10 mg plus AZD5718 200-mg tablet, fasted, read-out: Rosuvastatin Cmax, geometric mean (%CV)) was 5.74 ng/mL and the “Rosuvastatin tmax, median (range)” value ([1]; rosuvastatin 10 mg alone, fasted, n = 12) was 5.00 (0.50‐6.00) h. The “Participants with influenza-like illness” value (healthy volunteers) was 0 n (%), the “Increase in rosuvastatin AUC” value [2] was 2 fold and the “Increase in rosuvastatin Cmax” value [2] was 2 fold.

In the case of `C[C@H](C#Cc1ccc(Cc2ccc(F)cc2)s1)N(O)C(N)=O` [VIA‐2291], the “Left ventricular ejection fraction” value ([3]; dose-dependent) is listed as “improved left ventricular ejection fraction”, the “Appearance of new coronary lesions” value ([3]; phase 2) is listed as “prevented the appearance of new coronary lesions” and the “Leukotriene B4 production” value ([3]; phase 2) is listed as “reduced leukotriene B4 production”. For the same molecule, the Noncalcified plaque volume ([3]; phase 2) was “lowered noncalcified plaque volume”.

For `CC(c1cc2ccccc2s1)N(O)C(N)=O` (centres unmarked) [zileuton], the “Flow-mediated dilation in the brachial artery” value [4] is listed as “improved flow‐mediated dilation” and the Leukotriene production [4] is listed as “reduced leukotriene production”.

For “canakinumab: anti-interleukin-1β antibody”, the “Hazard ratio, recurrent cardiovascular events vs placebo” value ([5]; P = .021) is listed as 0.85 and the “Rate of recurrent cardiovascular events” value ([5]; canakinumab together with statins, placebo and statins 4.50) is listed as 3.90 events per 100 person‐years.

B1: evolocumab: proprotein convertase subtilisin/kexin type 9-neutralizing antibody (antibody, chains of the INN, looked up, V domains shown)
VH: EVQLVQSGAEVKKPGASVKVSCKASGYTLTSYGISWVRQAPGQGLEWMGWVSFYNGNTNYAQKLQGRGTMTTDPSTSTAYMELRSLRSDDTAVYYCARGYGMDVWGQGTTVTVSS
VL: ESALTQPASVSGSPGQSITISCTGTSSDVGGYNSVSWYQQHPGKAPKLMIYEVSNRPSGVSNRFSGSKSGNTASLTISGLQAEDEADYYCNSYTSTSMVFGGGTKLTVL
In the case of B1, the “Hazard ratio, recurrent cardiovascular events vs placebo” value ([6]; P < .001) is given as 0.85, the “LDL cholesterol level, median” value ([6]; evolocumab together with statins) is given as 30 mg/dL and the “Rate of recurrent cardiovascular events” value ([6]; evolocumab together with statins, placebo 11.3%) is given as 9.8%.
